Experimental data: ChEMBL document CHEMBL4196134, “Enantiomeric Pairs of Meroterpenoids with Diverse Heterocyclic Systems from Rhododendron nyingchiense” (J Nat Prod, 2018)

What follows are molecules tested against T1, Tyrosine-protein phosphatase non-receptor type 1 (Homo sapiens, UniProt P18031) (assay: Inhibition of recombinant human PTP1B catalytic domain ([…]) expressed in Escherichia coli BL21-codon plus (DE3) using pNPP as substrate measured continuously for 3 mins by colorimetric method).
T1 sequence (P18031 whole entry): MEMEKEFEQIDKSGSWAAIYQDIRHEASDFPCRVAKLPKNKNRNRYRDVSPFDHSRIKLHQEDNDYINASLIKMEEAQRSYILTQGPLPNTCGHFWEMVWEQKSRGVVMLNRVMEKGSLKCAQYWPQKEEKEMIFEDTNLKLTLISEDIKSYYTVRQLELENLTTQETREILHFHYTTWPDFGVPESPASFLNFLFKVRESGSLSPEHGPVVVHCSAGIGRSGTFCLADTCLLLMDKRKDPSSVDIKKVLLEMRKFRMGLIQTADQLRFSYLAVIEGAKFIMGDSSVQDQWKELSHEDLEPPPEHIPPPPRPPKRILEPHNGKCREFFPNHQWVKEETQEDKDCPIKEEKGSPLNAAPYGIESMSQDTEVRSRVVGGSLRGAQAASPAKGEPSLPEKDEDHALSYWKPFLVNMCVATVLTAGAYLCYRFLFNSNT

Row | IC50 [µM] | SMILES
1 | 58.2 | Cc1cc(O)cc2c1[C@H]1[C@@H]3[C@@H](CC[C@]3(C)O2)C1(C)C
2 | 61 | C=C(C)[C@@H]1CC[C@]2(C)Oc3cc(O)cc(C)c3C[C@H]12
3 | 38.1 | CC1=CC(=O)C=C2O[C@@]3(C)CC[C@H](C(C)(C)O)[C@H]3[C@H]3O[C@@]123
4 | 5.7 | CC(C)=CCC/C(C)=C/CC/C(C)=C/Cc1c(O)cc(C)cc1O [GRIFOLIN]
5 | 29 | C=C(C)[C@H]1CC[C@@]2(C)Oc3cc(O)cc(C)c3[C@@H]1[C@@H]2O
6 | 48.1 | C=C(C)[C@@H]1CC[C@]2(C)Oc3cc(O)cc(C)c3[C@H]1[C@H]2O
7 | 43.6 | Cc1cc(O)cc2c1O[C@H]1OC(C)(C)[C@@H]3CC[C@@](C)(O2)[C@@H]13
